In US12678446B2 (PFIZER INC., priority 2020, dated 2026) one finds EC50 and CC50 data, which are given here for 16 molecules.

A word on the EC50: it is the concentration that produces a half-maximal response. As usually defined, the CC50 is the concentration at which the toxic effect on the cells reaches its halfway point.

The test system of data set [1] is RSV (RSV A2 ECACC, 0709161v). In words: RSV plaque reduction assay. Format: cell-based, respiratory syncytial virus. As to conditions: mean of at least two experiments unless noted (n = 1). As for the experimental part: Compounds w ere subjected to RSV plaque reduction assays according to the following protocol.
Hep-G2 cells (ECACC, 85011430) were passaged in flasks and seeded in 24-well plates in DMEM containing antibiotics and supplemented with 10% FBS. During inoculation and subsequent incubation, cells were cultured in DMEM containing 2% FBS. 100 plaque forming unit/well of RSV (RSV A2 ECACC, 0709161v) was mixed with eight serial dilutions of compound. Subsequently, 100 μL of the virus/compound mixtures was added to confluent Hep-G2 cell monolayers. The cells and virus/compound mixtures were incubated at 37° C. in a humidified 5% CO2 incubator for 2 h prior to removal of the inoculum and addition of 1 mL of overlay (DMEM containing 2% FBS and 0.8% CMC) containing compound dilutions. The cells and were incubated at 37° C. in a humidified 5% CO2 incubator for 2 days.
Cells were washed with PBS before adding 75/25% v/v EtOH MeOH, for 3 min. Fixative was removed and plates were washed with PBS. A pre-titrated amount of the primary antibody was added in 200 μL PBS/2% milk powder, and plates incubated for 90 min at 37° C. The plates were washed 3 times with PBS/0.05% Tween20 before addition of rabbit anti-goat horse radish peroxidase in 200 μL PBS/2% milk powder, and incubated for 1 h at 37° C. Following three wash steps with PBS/0.05% Tween20, 200 μL ready-to-use TrueBlue was added and plates were incubated at rt for 10-15 min before washing with water. After removal of water, plates were air-dried in the dark.
Plates were scanned and analysed using the Immunospot S6 Macro analyser, which is equipped with BioSpot analysis software for counting immunostained plaques (virospots). Plaque counts were used to calculate % infection relative to the mean of the plaque count in the virus control wells for RSV. […] Unless otherwise noted, plaque EC50 and cell toxicity CC50 values are a mean of at least two experiments and figures are rounded to whole units.
A general note: In a plaque reduction assay, fewer plaques than in the control indicate reduced infectivity or spread.

A further data set is described as follows: cell toxicity CC50. The data set is classed as cell-based. To be noted: human; Hep-G2 cells; mean of at least two experiments; read-out: Cell Cytotoxicity CC50.
The mark [2] stands for this setting: human respiratory syncytial virus, HepG2, read-out: RSV A2 Plaque EC50, RSV A2 in Hep-G2 cells.

Where two headings read alike, the source gives them in different places.

In the case of `O=C(N[C@H]1N=C(c2ccccc2)c2cccc(F)c2NC1=O)c1c(-c2c(F)cccc2F)nn2c1OCC(CO)C2` (mixture of isomers) [Example 129, 2-(2,6-Difluorophenyl)-N-[(3S)-9-fluoro-2-oxo-5-phenyl-1,3-dihydro-1,4-benzodiazepin-3-yl]-6-(hydroxymethyl)-6,7-dihydro-5H-pyrazolo[5,1-b][1,3]oxazine-3-carboxamide], the EC50 in data set [1] (setting [2]) was found to be 37 nM. Moreover, the CC50 in “cell toxicity CC50” was above 25000 nM.
In the same order, the values of `CN(C)CC1COc2c(C(=O)N[C@H]3N=C(c4ccccc4)c4cccc(F)c4NC3=O)c(-c3ccccc3F)nn2C1` (mixture of isomers) [Example 171, 6-[(Dimethylamino)methyl]-N-[(3S)-9-fluoro-2-oxo-5-phenyl-1,3-dihydro-1,4-benzodiazepin-3-yl]-2-(2-fluorophenyl)-6,7-dihydro-5H-pyrazolo[5,1-b][1,3]oxazine-3-carboxamide] are 59 nM and above 25000 nM.
For `C[C@@H]1CCn2nc(-c3ccc(N4C[C@@H]5C[C@H]4CO5)nc3F)c(C(=O)N[C@H]3N=C(c4ccccc4)c4cccc(F)c4NC3=O)c2O1` (single isomer, unassigned) [Example 88], the EC50 in data set [1] (setting [2]) came to 146 nM. Further, the CC50 in the data set “cell toxicity CC50” is above 25000 nM.
In the same order, the values of `C[C@@H]1CCn2nc(-c3ccc(F)nc3N3C[C@@H]4C[C@H]3CO4)c(C(=O)N[C@H]3N=C(c4ccccc4)c4cccc(F)c4NC3=O)c2O1` (single isomer, unassigned) [Example 89] are 122 nM and above 25000 nM.
On to `C[C@@H]1CCn2nc(-c3ccc(N4C[C@H]5C[C@@H]4CO5)nc3F)c(C(=O)N[C@H]3N=C(c4ccccc4)c4cccc(F)c4NC3=O)c2O1` (single isomer, unassigned) [Example 90], for which, in data set [1] (setting [2]), the concentration for a half-maximal effect (EC50) was determined as 20 nM. For the same molecule, in the data set “cell toxicity CC50”, the half-maximal cytotoxic concentration (CC50) was above 25000 nM.
The like results for `C[C@@H]1CCn2nc(-c3ccc(N4CC5(COC5)C4)nc3F)c(C(=O)N[C@H]3N=C(c4ccccc4)c4cccc(F)c4NC3=O)c2O1` (single isomer, unassigned) [Example 91] were, in that order, 239 nM and above 25000 nM.
Turning to `O=C(N[C@H]1N=C(c2ccccc2)c2cccc(F)c2NC1=O)c1c(-c2ccccc2F)nn2c1OCC(CO)C2` (single isomer, unassigned) [Example 110-1, (6R*)-N-[(3S)-9-fluoro-2-oxo-5-phenyl-1,3-dihydro-1,4-benzodiazepin-3-yl]-2-(2-fluorophenyl)-6-(hydroxymethyl)-6,7-dihydro-5H-pyrazolo[5,1-b][1,3]oxazine-3-carboxamide], the concentration giving a half-maximal response (EC50) in data set [1] (setting [2]) was 42 nM. Further, the CC50 in the data set “cell toxicity CC50” is above 25000 nM.
In the same order, the values of `O=C(N[C@H]1N=C(c2ccccc2)c2cccc(F)c2NC1=O)c1c(-c2c(F)cccc2F)nn2c1OCC(CO)C2` (single isomer, unassigned) [Example 129-1, (6R*)-2-(2,6-Difluorophenyl)-N-[(3S)-9-fluoro-2-oxo-5-phenyl-1,3-dihydro-1,4-benzodiazepin-3-yl]-6-(hydroxymethyl)-6,7-dihydro-5H-pyrazolo[5,1-b][1,3]oxazine-3-carboxamide] are 39 nM and above 25000 nM.
As for `CN(C)CC1COc2c(C(=O)N[C@H]3N=C(c4ccccc4)c4cccc(F)c4NC3=O)c(-c3ccccc3F)nn2C1` (single isomer, unassigned) [Example 171-2, (6S*)-6-[(Dimethylamino)methyl]-N-[(3S)-9-fluoro-2-oxo-5-phenyl-1,3-dihydro-1,4-benzodiazepin-3-yl]-2-(2-fluorophenyl)-6,7-dihydro-5H-pyrazolo[5,1-b][1,3]oxazine-3-carboxamide], the EC50 in data set [1] (setting [2]) is 56 nM. Further, in “cell toxicity CC50”, the CC50 is above 25000 nM.
In the case of `O=C(N[C@H]1N=C(c2ccccc2)c2ccccc2NC1=O)c1c(-c2c(F)cccc2F)nn2c1OC(CO)CC2` (single isomer, unassigned) [Example 188-1, (5R*)-2-(2,6-Difluorophenyl)-5-(hydroxymethyl)-N-[(3S)-2-oxo-5-phenyl-1,3-dihydro-1,4-benzodiazepin-3-yl]-6,7-dihydro-5H-pyrazolo[5,1-b][1,3]oxazine-3-carboxamide], the EC50 in data set [1] (setting [2]) is 141 nM. In the data set “cell toxicity CC50”, the half-maximal cytotoxic concentration (CC50) is above 25000 nM.
`O=C(N[C@H]1N=C(c2ccccc2)c2cccc(F)c2NC1=O)c1c(-c2c(F)cccc2F)nn2c1OC(CO)CC2` (single isomer, unassigned) [Example 189-1, (5R*)-2-(2,6-Difluorophenyl)-N-[(3S)-9-fluoro-2-oxo-5-phenyl-1,3-dihydro-1,4-benzodiazepin-3-yl]-5-(hydroxymethyl)-6,7-dihydro-5H-pyrazolo[5,1-b][1,3]oxazine-3-carboxamide]: in data set [1] (setting [2]), the EC50 was determined as 41 nM. Besides, the CC50 in “cell toxicity CC50” was above 25000 nM.
Regarding `O=C(N[C@H]1N=C(c2ccccc2)c2cccc(F)c2NC1=O)c1c(-c2ccccc2F)nn2c1OC(CO)CC2` (single isomer, unassigned) [Example 190-1, (5R*)-N-[(3S)-9-Fluoro-2-oxo-5-phenyl-1,3-dihydro-1,4-benzodiazepin-3-yl]-2-(2-fluorophenyl)-5-(hydroxymethyl)-6,7-dihydro-5H-pyrazolo[5,1-b][1,3]oxazine-3-carboxamide], the EC50 in data set [1] (setting [2]) was found to be 98 nM. Further, in “cell toxicity CC50”, the CC50 is above 25000 nM.
For the molecule `COCC1CCn2nc(-c3ccccc3F)c(C(=O)N[C@H]3N=C(c4ccccc4)c4cccc(F)c4NC3=O)c2O1` (single isomer, unassigned) [Example 191-1, (5R*)-N-[(3S)-9-fluoro-2-oxo-5-phenyl-1,3-dihydro-1,4-benzodiazepin-3-yl]-2-(2-fluorophenyl)-5-(methoxymethyl)-6,7-dihydro-5H-pyrazolo[5,1-b][1,3]oxazine-3-carboxamide], the EC50 in data set [1] (read-out: RSV A2 Plaque EC50, RSV A2 in Hep-G2 cells) turned out to be 83 nM. The half-maximal cytotoxic concentration (CC50) in the data set “cell toxicity CC50” is above 25000 nM.
For the molecule `CC1CCn2nc(-c3ccc(N4C[C@@H]5C[C@H]4CO5)nc3)c(C(=O)NC3N=C(c4ccccc4)c4cccc(F)c4NC3=O)c2O1` (stereo in doubt) [Example 87, (5S)-5-Methyl-N-[(3R)-9-fluoro-2-oxo-5-phenyl-1,3-dihydro-1,4-benzodiazepin-3-yl]-2-[6-[(1S,4S)-2-oxa-5-azabicyclo[2.2.1]heptan-5-yl]pyridin-3-yl]-6,7-dihydro-5H-pyrazolo[5,1-b][1,3]oxazine-3-carboxamide], in data set [1] (setting [2]), the EC50 was determined as 179 nM. The CC50 in “cell toxicity CC50” was above 25000 nM.
Consider `CC1CCn2nc(Cc3ccccc3)c(C(=O)N[C@H]3N=C(c4ccccc4)c4cccc(F)c4NC3=O)c2O1` (stereo in doubt) [Example 109, (5S)-2-Benzyl-N-[(3S)-9-fluoro-2-oxo-5-phenyl-1,3-dihydro-1,4-benzodiazepin-3-yl]-5-methyl-6,7-dihydro-5H-pyrazolo[5,1-b][1,3]oxazine-3-carboxamide], for which the EC50 in data set [1] (setting [2]) was found to be 114 nM. Further, the CC50 in “cell toxicity CC50” was above 25000 nM.
In the same order, the values of `CC1Cn2nc(-c3ccccc3F)c(C(=O)N[C@H]3N=C(c4ccccc4)c4cccc(F)c4NC3=O)c2O1` (stereo in doubt) [Example 163, (2S)-N-[(3S)-9-fluoro-2-oxo-5-phenyl-1,3-dihydro-1,4-benzodiazepin-3-yl]-6-(2-fluorophenyl)-2-methyl-2,3-dihydropyrazolo[5,1-b][1,3]oxazole-7-carboxamide] are 76 nM and above 25000 nM.
